Results on one molecule are retold here after paper PMC10888717, “Identification of Novel Non-Nucleoside Inhibitors of Zika Virus NS5 Protein Targeting MTase Activity” (International Journal of Molecular Sciences, 2024).

SMILES strings stand for the structures.

One data set has as its system ZIKV. Kind of data set: ZIKV inhibitory viral plaque reduction assay in Vero E6 cells. The settings on record: Zika virus, Vero C1008, read-out: IC50 ± SD (half-maximal inhibitory concentration, ZIKV plaque reduction). In kind it is cell-based, Zika virus. In general terms: Plaque reduction counts the foci of infection that form in a cell layer.
The nature of data set [1]: Cytotoxicity assay (MTT) on Vero E6 cells. In kind it is cell-based. The settings on record: African green monkey; VERO E6 cells, MTT, 3 days; read-out: CC50 ± SD (half-maximal cytotoxic concentration). As to the method: Compounds characterized by the best anti-enzymatic activity were tested against ZIKV in cellular assays. VERO E6 cells were infected with ZIKV at a multiplicity of infection (M.O.I.) of 0.1, and their activities were evaluated by a plaque reduction assay three days post-infection. Ribavirin was used as a reference compound. As reported in Table 2, compound 1, identified in the first screening, was unable to inhibit viral replication up to a 100 μM concentration. […] The cytotoxicity of the series was determined on the same cell line. […] Their selectivity indexes were calculated as the ratio between CC50 and IC50 values; the results highlight their promising safety profile.
Monolayers of 2.5 × 10^4 Vero E6 cells per well were grown in flat-bottom 96-well culture plates and allowed to adhere overnight. Then, when the cell layers were confluent, the medium was removed, the wells were washed twice with PBS, treated with 100 µL of DMEM with 10 µL DMSO alone (cell positive control) or with various concentrations of anti-NS5 inhibitory compounds under study (compound final concentrations of 100, 10, 1, 0.1, and 0.01 μM), and incubated for 3 days at 37 °C in a CO2. After treatment, an MTT (3-(4,5-dimethylthiazol-2-yl)-2,5-diphenyltetrazolium bromide) kit (Roche, Milan, Italy) was used according to the supplier’s instructions, and the absorbance of each well was determined using a microplate spectrophotometer at a wavelength of 570 nm. Cytotoxicity was calculated by dividing the average optical density of treated samples by the average of DMSO-treated samples (cell positive control).

In the next data set the target is T1, ZIKV NS5 MTase (Zika virus, UniProt A0A024B7W1).
T1 construct: KJ776791.2, aa 4–278; His6 (N); made in house; host or cells: Escherichia coli T7 Express Iq
T1 sequence (A0A024B7W1 2524-2798): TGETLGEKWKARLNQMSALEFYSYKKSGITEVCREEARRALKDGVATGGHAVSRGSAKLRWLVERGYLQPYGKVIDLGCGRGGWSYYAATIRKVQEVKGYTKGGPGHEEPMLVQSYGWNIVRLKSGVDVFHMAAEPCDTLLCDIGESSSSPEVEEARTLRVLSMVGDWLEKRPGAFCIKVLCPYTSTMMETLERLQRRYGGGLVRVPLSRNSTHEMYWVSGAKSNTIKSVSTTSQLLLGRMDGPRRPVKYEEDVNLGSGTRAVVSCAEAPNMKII
Kind of data set: ZIKV NS5 MTase radioactive filter-binding assay (2′-O-MTase activity). In kind it is biochemical. The settings on record: at least two experiments, read-out: IC50 (half-maximal inhibitory enzymatic concentration). How it is done: Selected compounds were evaluated in enzymatic inhibition assays against both ZIKV and DENV 2′-O-MTase activity (For details, see Figure S3 in Supplementary Materials). The screening of compounds at a concentration of 50 µM highlighted a higher inhibitory activity against ZIKV MTase. We thus focused our efforts on ZIKV and determined the IC50 values against ZIKV MTase.
Expression and purification of ZIKV NS5 MTase: The coding sequence of the ZIKV NS5 MTase domain (strain H/PF/2013, GenBank accession no. KJ776791.2, aa 4–278) was synthesized by Genscript and cloned into a pQE30 vector (Qiagen, Hilden, Germany) with an N-terminal His6 tag. The protein was expressed and purified following the procedures described in Coutard et al..
Briefly, after expression in Escherichia coli T7 Express Iq (New England BioLabs) in Terrific Broth at 17 °C overnight, bacterial pellets were resuspended in lysis buffer (50 mM Tris-HCl [pH 8], 300 mM NaCl, 5% glycerol, 0.1% Triton, 10 μg/mL DNase I, 2 tablets of EDTA-free antiprotease cocktail [Roche] and 0.25 mg/mL lysozyme). Following cell lysis and clarification, the protein was purified by affinity on immobilized metal affinity chromatography (IMAC, His prep column [GE Healthcare]), followed by size exclusion chromatography (Superdex S75 HR 16/20 column [GE Healthcare]). The NS5-MTase was concentrated and stored at −20 °C after adding glycerol to a final concentration of 40%.
Filter-binding assay: The transfer of tritiated methyl from ^[3H]SAM onto RNA substrate was monitored by a filter-binding assay (FBA), performed according to the method described previously. FBA was carried out in a reaction mixture [40 mM Tris-HCl (pH 8.0), 1 mM DTT, 2 μM SAM, and 0.1 μM 3H-SAM (Perkin Elmer, Shelton, CT, USA)] in the presence of 0.7 μM synthetic ^7mGpppAC4 and ZIKV NS5 MTase (500 nM). The enzyme was first mixed with an increasing concentration of inhibitors, previously suspended in dimethyl sulfoxide (DMSO), before the addition of RNA substrate and SAM, and then incubated at 30 °C. The final DMSO concentration in reactions was 5%. Reaction mixtures were stopped after 30 min incubation by their 10-fold dilution in ice-cold water. Samples were transferred to diethylaminoethyl (DEAE) filtermat (Perkin Elmer, Shelton, CT, USA) using a Filtermat Harvester (Packard Instruments, Meriden, CT, USA). The RNA-retaining mats were washed twice with 10 mM ammonium formate pH 8.0, twice with water, and once with ethanol before drying. They were soaked with scintillation fluid (Perkin Elmer, Shelton, CT, USA), and 3H-methyl transfer to the RNA substrates was determined using a Wallac MicroBeta TriLux Liquid Scintillation Counter (Perkin Elmer, Shelton, CT, USA). For IC50 measurements, values were normalized and fitted with Prism (GraphPad software version 10.1.1) using the following equation: Y = 100/(1 + ((X/IC50) ^ Hillslope)).

The next data set addresses DENV MTase. Kind of data set: DENV MTase enzymatic inhibition assay. In kind it is biochemical, Dengue virus. The settings on record: read-out: IC50 against DENV MTase. The source says:
Firstly, a pharmacophoric model was developed taking into consideration the most populated interactions (Figure 1C). The pharmacophore was used to perform a first screening, choosing molecules matching the pharmacophore features representing the interactions of the SAM adenine group and at least one of the two groups of features representing the interaction of SAM methionine moieties, with the aim of identifying compounds able to form interactions within both the adenine and the methionine subpockets of the SAM-binding site. The obtained results were then subjected to docking analysis using Glide XP, Glide SP, and GOLD (using the GoldScore fitness function). At the end of each docking procedure, a post-docking filter was applied to check whether the desired pharmacophoric interactions were maintained in the predicted binding modes of the docked compounds. Only the ligands for which a common binding mode matching the desired pharmacophore features was predicted by all the docking software were retained and then subjected to clustering and visual inspection. […]
Selected compounds were evaluated in enzymatic inhibition assays against both ZIKV and DENV 2′-O-MTase activity (For details, see Figure S3 in Supplementary Materials). […] We thus focused our efforts on ZIKV and determined the IC50 values against ZIKV MTase.

With `O=C(Nc1ccc2c(c1)C(=O)NC2=O)c1cc2cc([N+](=O)[O-])ccc2s1` [Compound 1], the IC50 was above 100 µM in the data set on ZIKV, 53 µM on ZIKV NS5 MTase and 69 µM at DENV MTase. Besides, in data set [1], the CC50 at 3 days was above 100 µM.
